In patent US8410132B2, “Modulators of cystic fibrosis transmembrane conductance regulator” (Vertex Pharmaceuticals Incorporated, priority 2007, dated 2013):

Target: T1, ΔF508-CFTR (Homo sapiens, UniProt P13569, DEL508-508)
T1 construct: expressed in transfected cells; host or cells: Fisher rat epithelial (FRT) cells expressing ΔF508-CFTR (Ussing chamber); NIH3T3 cells stably expressing ΔF508-CFTR (whole-cell recordings)
Experiment: Assay for detecting and measuring ΔF508-CFTR potentiation properties of compounds (membrane potential optical method / Ussing chamber)
Type: cell-based
Conditions: for Emax: relative efficacy, efficacy compared to that of the known potentiator genistein; for EC50: ΔF508-CFTR potentiation
Source text: Assays for Detecting and Measuring ΔF508-CFTR Potentiation Properties of Compounds
Membrane Potential Optical Methods for Assaying ΔF508-CFTR Modulation Properties of Compounds
The optical membrane potential assay utilized voltage-sensitive FRET sensors described by Gonzalez and Tsien (See, Gonzalez, J. E. and R. Y. Tsien (1995) “Voltage sensing by fluorescence resonance energy transfer in single cells” Biophys J 69(4): 1272-80, and Gonzalez, J. E. and R. Y. Tsien (1997) “Improved indicators of cell membrane potential that use fluorescence resonance energy transfer” Chem Biol 4(4): 269-77) in combination with instrumentation for measuring fluorescence changes such as the Voltage/Ion Probe Reader (VIPR) (See, Gonzalez, J. E., K. Oades, et al. (1999) “Cell-based assays and instrumentation for screening ion-channel targets” Drug Discov Today 4(9): 431-439).
These voltage sensitive assays are based on the change in fluorescence resonant energy transfer (FRET) between the membrane-soluble, voltage-sensitive dye, DiSBAC2(3), and a fluorescent phospholipid, CC2-DMPE, which is attached to the outer leaflet of the plasma membrane and acts as a FRET donor. Changes in membrane potential (Vm) cause the negatively charged DiSBAC2(3) to redistribute across the plasma membrane and the amount of energy transfer from CC2-DMPE changes accordingly. The changes in fluorescence emission were monitored using VIPR™ II, which is an integrated liquid handler and fluorescent detector designed to conduct cell-based screens in 96- or 384-well microtiter plates.
Identification of Potentiator Compounds
Typical protocol utilized a basolateral to apical membrane Cl^− concentration gradient. To set up this gradient, normal ringers was used on the basolateral membrane and was permeabilized with nystatin (360 μg/ml), whereas apical NaCl was replaced by equimolar sodium gluconate (titrated to pH 7.4 with NaOH) to give a large Cl^− concentration gradient across the epithelium. All experiments were performed 30 min after nystatin permeabilization. Forskolin (10 μM) and all test compounds were added to both sides of the cell culture inserts. The efficacy of the putative ΔF508-CFTR potentiators was compared to that of the known potentiator, genistein.
Fisher rat epithelial (FRT) cells expressing ΔF508-CFTR (FRTΔ^F508-CFTR) were used for Ussing chamber experiments for the putative ΔF508-CFTR modulators identified from our optical assays. The cells were cultured on Costar Snapwell cell culture inserts and cultured for five days at 37° C. and 5% CO2 in Coon's modified Ham's F-12 medium supplemented with 5% fetal calf serum, 100 U/ml penicillin, and 100 μg/ml streptomycin. Prior to use for characterizing the potentiator activity of compounds, the cells were incubated at 27° C. for 16-48 hrs to correct for the ΔF508-CFTR. To determine the activity of corrections compounds, the cells were incubated at 27° C. or 37° C. with and without the compounds for 24 hours.
Compounds of the invention are useful as modulators of ATP binding cassette transporters. Table 3 below illustrates the EC50 and relative efficacy of certain embodiments in Table 1.

T1 sequence (P13569 with tags, fused parts or gaps DEL508-508): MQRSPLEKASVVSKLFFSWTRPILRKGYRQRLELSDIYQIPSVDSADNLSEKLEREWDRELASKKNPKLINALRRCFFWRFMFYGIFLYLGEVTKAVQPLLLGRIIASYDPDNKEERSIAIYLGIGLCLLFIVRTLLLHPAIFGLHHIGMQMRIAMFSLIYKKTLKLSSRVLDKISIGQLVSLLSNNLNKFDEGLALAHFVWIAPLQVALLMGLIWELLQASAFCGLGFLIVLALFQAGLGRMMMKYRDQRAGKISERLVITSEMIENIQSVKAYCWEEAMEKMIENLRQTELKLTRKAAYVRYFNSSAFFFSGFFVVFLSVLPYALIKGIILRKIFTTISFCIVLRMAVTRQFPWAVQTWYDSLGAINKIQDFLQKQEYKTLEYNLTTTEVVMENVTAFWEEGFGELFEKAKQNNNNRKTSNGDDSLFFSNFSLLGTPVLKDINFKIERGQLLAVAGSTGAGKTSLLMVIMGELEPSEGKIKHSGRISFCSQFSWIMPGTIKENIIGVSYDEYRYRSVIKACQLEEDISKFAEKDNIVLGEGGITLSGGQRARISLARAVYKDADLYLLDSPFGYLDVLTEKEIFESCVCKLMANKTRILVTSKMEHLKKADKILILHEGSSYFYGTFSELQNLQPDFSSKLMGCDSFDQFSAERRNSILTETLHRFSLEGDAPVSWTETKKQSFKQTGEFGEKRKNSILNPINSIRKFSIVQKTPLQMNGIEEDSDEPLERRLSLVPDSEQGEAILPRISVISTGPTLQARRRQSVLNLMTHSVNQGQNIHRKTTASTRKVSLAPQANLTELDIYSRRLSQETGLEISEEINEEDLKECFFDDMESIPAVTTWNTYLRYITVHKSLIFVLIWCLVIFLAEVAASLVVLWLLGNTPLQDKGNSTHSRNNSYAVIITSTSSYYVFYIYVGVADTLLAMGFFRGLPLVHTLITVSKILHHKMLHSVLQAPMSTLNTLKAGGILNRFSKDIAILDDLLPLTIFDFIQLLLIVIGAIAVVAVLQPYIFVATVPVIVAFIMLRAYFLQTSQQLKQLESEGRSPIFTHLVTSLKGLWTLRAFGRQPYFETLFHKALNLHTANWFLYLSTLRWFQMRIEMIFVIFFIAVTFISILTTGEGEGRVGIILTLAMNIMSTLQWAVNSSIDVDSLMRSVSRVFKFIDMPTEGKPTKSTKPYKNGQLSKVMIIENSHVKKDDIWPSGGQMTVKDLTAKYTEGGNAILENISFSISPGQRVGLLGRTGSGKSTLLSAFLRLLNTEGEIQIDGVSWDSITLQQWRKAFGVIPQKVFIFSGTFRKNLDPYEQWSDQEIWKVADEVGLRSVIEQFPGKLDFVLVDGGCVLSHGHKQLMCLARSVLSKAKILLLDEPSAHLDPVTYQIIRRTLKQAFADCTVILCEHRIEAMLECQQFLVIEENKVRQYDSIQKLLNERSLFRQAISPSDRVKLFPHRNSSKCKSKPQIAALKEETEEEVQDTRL

Compound	Emax [%]	EC50 [µM]
O=C(Nc1ccc(N2CCCC2)cc1C(F)(F)F)c1c[nH]c2cnccc2c1=O [Cmpd 11, 4-oxo-N-(4-(pyrrolidin-1-yl)-2-(trifluoromethyl)phenyl)-1,4-dihydro-1,7-naphthyridine-3-carboxamide]	25 to 100	< 10
O=C(Nc1ccc(N2CCCC2)cc1C(F)(F)F)c1c[nH]c2ccncc2c1=O [Cmpd 7, 4-oxo-N-(4-(pyrrolidin-1-yl)-2-(trifluoromethyl)phenyl)-1,4-dihydro-1,6-naphthyridine-3-carboxamide]	25 to 100	< 10
CC1(C)CCCN(c2ccc(NC(=O)c3c[nH]c4cnccc4c3=O)c(C(F)(F)F)c2)C1 [Cmpd 18, N-(4-(3,3-dimethylpiperidin-l-yl)-2-(trifluoromethyl)phenyl)-4-oxo-1,4-dihydro-1,7-naphthyridine-3-carboxamide]	25 to 100	< 10
Cc1cc2c(=O)c(C(=O)Nc3cc(O)c(C4(C)CCCCC4)cc3F)c[nH]c2cn1 [Cmpd 17, N-(2-fluoro-5-hydroxy-4-(1-methylcyclohexyl)phenyl)-6-methyl-4-oxo-1,4-dihydro-1,7-naphthyridine-3-carboxamide]	< 25	10 to 25
O=C(Nc1ccc2c(C(F)(F)F)c[nH]c2c1)c1c[nH]c2cnccc2c1=O [Cmpd 16, 4-oxo-N-(3-(trifluoromethyl)-1H-indol-6-yl)-1,4-dihydro-1,7-naphthyridine-3-carboxamide]	25 to 100	< 10
O=C(NC(c1ccccc1)c1ccccc1)c1c[nH]c2ccncc2c1=O [Cmpd 1, N-benzhydryl-4-oxo-1,4-dihydro-1,6-naphthyridine-3-carboxamide]	> 100	< 10
O=C(NCC(c1ccccc1)c1ccccc1)c1c[nH]c2ccncc2c1=O [Cmpd 2, N-(2,2-diphenylethyl)-4-oxo-1,4-dihydro-1,6-naphthyridine-3-carboxamide]	25 to 100	< 10
C[C@H]1CCCN1c1ccc(NC(=O)c2c[nH]c3cnccc3c2=O)c(C(F)(F)F)c1 [Cmpd 12, (S)-N-(4-(2-methylpyrrolidin-1-yl)-2-(trifluoromethyl)phenyl)-4-oxo-1,4-dihydro-1,7-naphthyridine-3-carboxamide]	25 to 100	< 10
O=C(Nc1ccccc1-c1ccccc1)c1c[nH]c2ccncc2c1=O [Cmpd 5, N-(biphenyl-2-yl)-4-oxo-1,4-dihydro-1,6-naphthyridine-3-carboxamide]	25 to 100	< 10
CC(C)(C)c1cc(C(C)(C)C)c(NC(=O)c2c[nH]c3cnccc3c2=O)cc1O [Cmpd 9, N-(2,4-di-tert-butyl-5-hydroxyphenyl)-4-oxo-1,4-dihydro-1,7-naphthyridine-3-carboxamide]	25 to 100	< 10
CC(C)c1ccccc1NC(=O)c1c[nH]c2ccncc2c1=O [Cmpd 4, N-(2-isopropylphenyl)-4-oxo-1,4-dihydro-1,6-naphthyridine-3-carboxamide]	25 to 100	< 10
CC1(c2cc(F)c(NC(=O)c3c[nH]c4cnccc4c3=O)cc2O)CCCCC1 [Cmpd 13, N-(2-fluoro-5-hydroxy-4-(1-methylcyclohexyl)phenyl)-4-oxo-1,4-dihydro-1,7-naphthyridine-3-carboxamide]	25 to 100	< 10
Cc1cc2c(=O)c(C(=O)Nc3cc4[nH]ccc4cc3C(F)(F)F)c[nH]c2cn1 [Cmpd 15, 6-methyl-4-oxo-N-(5-(trifluoromethyl)-1H-indol-6-yl)-1,4-dihydro-1,7-naphthyridine-3-carboxamide]	25 to 100	< 10
O=C(Nc1ccc2cc[nH]c2c1)c1c[nH]c2ccncc2c1=O [Cmpd 6, N-(1H-indol-6-yl)-4-oxo-1,4-dihydro-1,6-naphthyridine-3-carboxamide]	< 25	< 10
CCCc1ccccc1NC(=O)c1c[nH]c2ccncc2c1=O [Cmpd 3, 4-oxo-N-(2-propylphenyl)-1,4-dihydro-1,6-naphthyridine-3-carboxamide]	25 to 100	< 10
CC(C)(C)c1cc2cc[nH]c2cc1NC(=O)c1c[nH]c2cnccc2c1=O [Cmpd 10, N-(5-tert-butyl-1H-indol-6-yl)-4-oxo-1,4-dihydro-1,7-naphthyridine-3-carboxamide]	25 to 100	< 10
O=C(NCC1(c2ccc(OC(F)(F)F)cc2)CCCC1)c1c[nH]c2ccncc2c1=O [Cmpd 8, 4-oxo-N-((1-(4-(trifluoromethoxy)phenyl)-cyclopentyl)methyl)-1,4-dihydro-1,6-naphthyridine-3-carboxamide]	25 to 100	< 10
O=C(Nc1cc2[nH]ccc2cc1C(F)(F)F)c1c[nH]c2cnccc2c1=O [Cmpd 14, 4-oxo-N-(5-(trifluoromethyl)-1H-indol-6-yl)-1,4-dihydro-1,7-naphthyridine-3-carboxamide]	25 to 100	< 10
